According to the NIST ThermoML archive (doi:10.1021/acs.jced.8b00202):
Numbers after ± are expanded uncertainties.

Conditions: Liquid, Frequency=8 MHz, Dual path-length method

CC(C)C [2-methylpropane]
Conditions | speed of sound [m/s]
199.99 K, 409.39 kPa | 1393.6 ± 0.08
199.99 K, 599.71 kPa | 1394.9 ± 0.08
199.99 K, 1103.6 kPa | 1398.1 ± 0.08
199.99 K, 2104.3 kPa | 1404.5 ± 0.08
199.99 K, 3104.9 kPa | 1410.8 ± 0.09
199.99 K, 4105.7 kPa | 1417.1 ± 0.09
199.99 K, 5106.3 kPa | 1423.3 ± 0.09
199.99 K, 6107 kPa | 1429.4 ± 0.09
199.99 K, 7107.8 kPa | 1435.5 ± 0.09
199.99 K, 8108.5 kPa | 1441.5 ± 0.09
199.99 K, 9109.1 kPa | 1447.5 ± 0.09
199.99 K, 10110 kPa | 1453.4 ± 0.09
199.99 K, 12612 kPa | 1467.8 ± 0.09
199.99 K, 15113 kPa | 1482 ± 0.09
199.99 K, 17615 kPa | 1495.8 ± 0.09
199.99 K, 20117 kPa | 1509.3 ± 0.09
199.99 K, 25120 kPa | 1535.6 ± 0.1
199.99 K, 30124 kPa | 1560.8 ± 0.1
199.99 K, 35128 kPa | 1585.2 ± 0.1
199.99 K, 40131 kPa | 1608.7 ± 0.1
199.99 K, 45134 kPa | 1631.5 ± 0.11
199.99 K, 50138 kPa | 1653.5 ± 0.11
199.99 K, 60145 kPa | 1695.8 ± 0.12
199.99 K, 70152 kPa | 1735.8 ± 0.12
199.99 K, 80158 kPa | 1773.8 ± 0.13
200 K, 90166 kPa | 1810.1 ± 0.14
200 K, 100173 kPa | 1844.9 ± 0.14
220 K, 1103.2 kPa | 1276.9 ± 0.08
220 K, 2103.8 kPa | 1284.3 ± 0.08
220 K, 3102.9 kPa | 1291.5 ± 0.08
220 K, 3104.4 kPa | 1291.5 ± 0.08
220 K, 4105.1 kPa | 1298.6 ± 0.08
220 K, 5105.2 kPa | 1305.7 ± 0.08
220 K, 6106 kPa | 1312.7 ± 0.08
220 K, 7106.6 kPa | 1319.5 ± 0.08
220 K, 8107.3 kPa | 1326.3 ± 0.08
220 K, 9108 kPa | 1333 ± 0.08
220 K, 10109 kPa | 1339.7 ± 0.08
220 K, 10110 kPa | 1339.7 ± 0.08
220 K, 12610 kPa | 1356 ± 0.09
220 K, 15112 kPa | 1371.8 ± 0.09
220 K, 17614 kPa | 1387.2 ± 0.09
220 K, 20116 kPa | 1402.2 ± 0.09
220 K, 20117 kPa | 1402.2 ± 0.09
220 K, 25119 kPa | 1431.2 ± 0.09
220 K, 30123 kPa | 1459 ± 0.09
220 K, 30124 kPa | 1459 ± 0.09
220 K, 35126 kPa | 1485.6 ± 0.1
220 K, 40130 kPa | 1511.2 ± 0.1
220 K, 40131 kPa | 1511.2 ± 0.1
220 K, 45134 kPa | 1535.8 ± 0.1
220 K, 50137 kPa | 1559.7 ± 0.11
220 K, 60144 kPa | 1605.2 ± 0.11
220 K, 70151 kPa | 1648 ± 0.12
220 K, 80158 kPa | 1688.5 ± 0.12
220 K, 90165 kPa | 1727 ± 0.13
220 K, 100172 kPa | 1763.8 ± 0.14
240 K, 402.14 kPa | 1153 ± 0.08
240 K, 402.77 kPa | 1153 ± 0.08
240 K, 602.82 kPa | 1154.8 ± 0.08
240 K, 1103.6 kPa | 1159 ± 0.08
240 K, 2103.9 kPa | 1167.5 ± 0.08
240 K, 2104.3 kPa | 1167.5 ± 0.08
240 K, 3104.9 kPa | 1175.8 ± 0.08
240 K, 4105.7 kPa | 1184 ± 0.08
240 K, 5106.3 kPa | 1192.1 ± 0.08
240 K, 6107.2 kPa | 1200 ± 0.08
240 K, 7108 kPa | 1207.8 ± 0.08
240 K, 8108.1 kPa | 1215.5 ± 0.08
240 K, 8109.3 kPa | 1215.5 ± 0.08
240 K, 9110.1 kPa | 1223.1 ± 0.08
240 K, 10111 kPa | 1230.6 ± 0.08
240 K, 12613 kPa | 1248.8 ± 0.08
240 K, 15113 kPa | 1266.5 ± 0.08
240 K, 15114 kPa | 1266.5 ± 0.08
240 K, 17616 kPa | 1283.7 ± 0.08
240 K, 20118 kPa | 1300.3 ± 0.09
240 K, 25121 kPa | 1332.3 ± 0.09
240 K, 30124 kPa | 1362.6 ± 0.09
240 K, 30125 kPa | 1362.6 ± 0.09
240 K, 35128 kPa | 1391.6 ± 0.09
240 K, 40132 kPa | 1419.3 ± 0.1
240 K, 45135 kPa | 1445.9 ± 0.1
240 K, 50139 kPa | 1471.5 ± 0.1
240 K, 60146 kPa | 1520.1 ± 0.11
240 K, 70153 kPa | 1565.7 ± 0.11
240 K, 80160 kPa | 1608.6 ± 0.12
240 K, 90167 kPa | 1649.3 ± 0.13
240 K, 100174 kPa | 1688 ± 0.13
259.99 K, 8108.1 kPa | 1108.7 ± 0.08
259.99 K, 15113 kPa | 1166 ± 0.08
259.99 K, 30123 kPa | 1271.7 ± 0.09
260 K, 402.73 kPa | 1036.8 ± 0.08
260 K, 405.47 kPa | 1036.7 ± 0.08
260 K, 607.87 kPa | 1038.8 ± 0.08
260 K, 1106.4 kPa | 1043.8 ± 0.08
260 K, 2104 kPa | 1053.6 ± 0.08
260 K, 2107.1 kPa | 1053.6 ± 0.08
260 K, 3107.8 kPa | 1063.2 ± 0.08
260 K, 4108.4 kPa | 1072.7 ± 0.08
260 K, 5109.1 kPa | 1081.9 ± 0.08
260 K, 6109.7 kPa | 1091 ± 0.08
260 K, 7111 kPa | 1099.9 ± 0.08
260 K, 8111.7 kPa | 1108.6 ± 0.08
260 K, 9112.4 kPa | 1117.2 ± 0.08
260 K, 10113 kPa | 1125.7 ± 0.08
260 K, 12615 kPa | 1146.2 ± 0.08
260 K, 15116 kPa | 1166 ± 0.08
260 K, 17618 kPa | 1185 ± 0.08
260 K, 20120 kPa | 1203.5 ± 0.08
260 K, 25123 kPa | 1238.6 ± 0.08
260 K, 30127 kPa | 1271.7 ± 0.09
260 K, 35130 kPa | 1303.1 ± 0.09
260 K, 40134 kPa | 1333 ± 0.09
260 K, 45137 kPa | 1361.5 ± 0.09
260 K, 50140 kPa | 1388.9 ± 0.1
260 K, 60147 kPa | 1440.6 ± 0.1
260 K, 70154 kPa | 1488.7 ± 0.11
260 K, 80161 kPa | 1533.9 ± 0.12
260 K, 90168 kPa | 1576.6 ± 0.12
260 K, 100175 kPa | 1617.2 ± 0.13
280 K, 402.43 kPa | 921.86 ± 0.077
280 K, 602.22 kPa | 924.25 ± 0.076
280 K, 606.25 kPa | 924.3 ± 0.076
280 K, 1103.2 kPa | 930.19 ± 0.076
280 K, 2103.9 kPa | 941.79 ± 0.076
280 K, 3104.4 kPa | 953.08 ± 0.076
280 K, 4105.1 kPa | 964.08 ± 0.076
280 K, 5105.7 kPa | 974.8 ± 0.076
280 K, 6106.3 kPa | 985.26 ± 0.075
280 K, 7107 kPa | 995.5 ± 0.076
280 K, 8107.9 kPa | 1005.5 ± 0.07
280 K, 9108.6 kPa | 1015.3 ± 0.07
280 K, 10109 kPa | 1024.9 ± 0.08
280 K, 12611 kPa | 1048 ± 0.08
280 K, 15113 kPa | 1070.1 ± 0.08
280 K, 17614 kPa | 1091.3 ± 0.08
280 K, 20116 kPa | 1111.6 ± 0.08
280 K, 25119 kPa | 1150.1 ± 0.08
280 K, 30123 kPa | 1186.1 ± 0.08
280 K, 35126 kPa | 1220 ± 0.08
280 K, 40130 kPa | 1252.1 ± 0.09
280 K, 45133 kPa | 1282.6 ± 0.09
280 K, 50137 kPa | 1311.8 ± 0.09
280 K, 60144 kPa | 1366.4 ± 0.1
280 K, 70151 kPa | 1417.1 ± 0.1
280 K, 80158 kPa | 1464.6 ± 0.11
280 K, 90164 kPa | 1509.1 ± 0.12
280 K, 100171 kPa | 1551.2 ± 0.12
299.99 K, 3104.6 kPa | 844.54 ± 0.075
300 K, 601.97 kPa | 809.82 ± 0.076
300 K, 1103.1 kPa | 817.03 ± 0.076
300 K, 1103.4 kPa | 817.08 ± 0.076
300 K, 4105.3 kPa | 857.55 ± 0.075
300 K, 5106 kPa | 870.14 ± 0.074
300 K, 5106.3 kPa | 870.12 ± 0.074
300 K, 6106.5 kPa | 882.34 ± 0.074
300 K, 7107.5 kPa | 894.17 ± 0.074
300 K, 8108.1 kPa | 905.68 ± 0.074
300 K, 9108.7 kPa | 916.91 ± 0.074
300 K, 10109 kPa | 927.83 ± 0.074
300 K, 12611 kPa | 954.01 ± 0.074
300 K, 15113 kPa | 978.78 ± 0.075
300 K, 17614 kPa | 1002.3 ± 0.07
300 K, 20116 kPa | 1024.8 ± 0.08
300 K, 25120 kPa | 1066.9 ± 0.08
300 K, 30123 kPa | 1105.9 ± 0.08
300 K, 35127 kPa | 1142.4 ± 0.08
300 K, 40131 kPa | 1176.7 ± 0.08
300 K, 45134 kPa | 1209.2 ± 0.09
